Measured values from patent US11014902B2, “MYC G-quadruplex stabilizing small molecules and their use” (The United States of America, as represented by the …, priority 2015, dated 2021).

Legend:
Assay in all cases: NCI-60 cell growth (SRB)
Format in all cases: cell-based
[1] = tested on: MCF7; conditions: MCF7, Breast Cancer; 10 μM, 48 hours
Experimental: (§1) This example illustrates that Compounds 1 and 23 can be used in inhibit the growth of c-Myc expressing cancer cell lines in vitro. The NCI-60 panel of cancer cell lines (see Shoemaker, Nat. Rev. Cancer, 6, 813-823, 2006, and dtp.cancer.gov/discovery_development/nci-60/) was assayed for cell growth in the presence of 10 μM Compound 1 or Compound 23 for 48 hours. At 48 hours, the assay was terminated by fixation with TCA and determination of relative cell counts by addition of Sulforhodamine B (SRB, see Alley et al., Cancer Research, 48: 589-601, 1988.). Growth percent was determined by comparison of SRB reading of a duplicate plate of cells taken at the time of compound addition to the SRB reading at the termination of the treatment. The following table provides a summary of the percent of growth of each cell line in the panel compared to control (no treatment), as well as the mean delta and range of percent growth compared to control across the panel of cell lines for each treatment condition.

[2] = tested on: K-562; conditions: K-562, Leukemia; 10 μM, 48 hours
Experimental: as §1

[3] = tested on: SF-295; conditions: SF-295, CNS Cancer; 10 μM, 48 hours
Experimental: as §1

[4] = tested on: CAKI-1; conditions: CAKI-1, Renal Cancer; 10 μM, 48 hours
Experimental: as §1

[5] = tested on: TK-10; conditions: TK-10, Renal Cancer; 10 μM, 48 hours
Experimental: as §1

[6] = tested on: RPMI-8226; conditions: RPMI-8226, Leukemia; 10 μM, 48 hours
Experimental: as §1

[7] = tested on: OVCAR-8; conditions: OVCAR-8, Ovarian Cancer; 10 μM, 48 hours
Experimental: as §1

[8] = tested on: HT29; conditions: HT29, Colon Cancer; 10 μM, 48 hours
Experimental: as §1

[9] = tested on: SK-MEL-28; conditions: SK-MEL-28, Melanoma; 10 μM, 48 hours
Experimental: as §1

[10] = tested on: DU-145; conditions: DU-145, Prostate Cancer; 10 μM, 48 hours
Experimental: as §1

[11] = tested on: NCI-H522; conditions: NCI-H522, Non-Small Cell Lung Cancer; 10 μM, 48 hours
Experimental: as §1

[12] = tested on: MOLT-4; conditions: MOLT-4, Leukemia; 10 μM, 48 hours
Experimental: as §1

[13] = tested on: HCT-15; conditions: HCT-15, Colon Cancer; 10 μM, 48 hours
Experimental: as §1

[14] = tested on: SN12C; conditions: Renal Cancer, 10 μM, 48 hours
Experimental: as §1

[15] = tested on: SW-620; conditions: SW-620, Colon Cancer; 10 μM, 48 hours
Experimental: as §1

[16] = tested on: RXF 393; conditions: RXF 393, Renal Cancer; 10 μM, 48 hours
Experimental: as §1

[17] = tested on: LOX IMVI; conditions: Melanoma, 10 μM, 48 hours
Experimental: as §1

[18] = tested on: HOP-62; conditions: HOP-62, Non-Small Cell Lung Cancer; 10 μM, 48 hours
Experimental: as §1

[19] = tested on: SR; conditions: Leukemia, 10 μM, 48 hours
Experimental: as §1

[20] = tested on: OVCAR-3; conditions: OVCAR-3, Ovarian Cancer; 10 μM, 48 hours
Experimental: as §1

[21] = tested on: NCI/ADR-RES; conditions: Ovarian Cancer, 10 μM, 48 hours
Experimental: as §1

[22] = tested on: MDA-MB-468; conditions: MDA-MB-468, Breast Cancer; 10 μM, 48 hours
Experimental: as §1

[23] = tested on: M14; conditions: M14, Melanoma; 10 μM, 48 hours
Experimental: as §1

[24] = tested on: BT-549; conditions: BT-549, Breast Cancer; 10 μM, 48 hours
Experimental: as §1

[25] = tested on: COLO 205; conditions: COLO 205, Colon Cancer; 10 μM, 48 hours
Experimental: as §1

[26] = tested on: PC-3; conditions: PC-3, Prostate Cancer; 10 μM, 48 hours
Experimental: as §1

[27] = tested on: SK-MEL-2; conditions: SK-MEL-2, Melanoma; 10 μM, 48 hours
Experimental: as §1

[28] = tested on: T-47D; conditions: Breast Cancer, 10 μM, 48 hours
Experimental: as §1

[29] = tested on: A498; conditions: A498, Renal Cancer; 10 μM, 48 hours
Experimental: as §1

[30] = tested on: NCI-H322M; conditions: Non-Small Cell Lung Cancer, 10 μM, 48 hours
Experimental: as §1

[31] = tested on: HL-60(TB); conditions: Leukemia, 10 μM, 48 hours
Experimental: as §1

[32] = tested on: UACC-257; conditions: UACC-257, Melanoma; 10 μM, 48 hours
Experimental: as §1

[33] = tested on: OVCAR-4; conditions: OVCAR-4, Ovarian Cancer; 10 μM, 48 hours
Experimental: as §1

[34] = tested on: UACC-62; conditions: UACC-62, Melanoma; 10 μM, 48 hours
Experimental: as §1

[35] = tested on: SF-268; conditions: SF-268, CNS Cancer; 10 μM, 48 hours
Experimental: as §1

Cc1ccc(NC(=O)c2c(C)oc3ccc(O)c(CN4CCCCCC4)c23)cc1 [Compound 1]
Growth Percent [1]: 78.41% | Growth Percent [2]: 75.93% | Growth Percent [3]: 85.34% | Growth Percent [4]: 75.13% | Growth Percent [5]: 92.66% | Growth Percent [6]: 91.38% | Growth Percent [7]: 89.96% | Growth Percent [8]: 100.25% | Growth Percent [9]: 96.60% | Growth Percent [10]: 103.26% | Growth Percent [11]: 90.68% | Growth Percent [12]: 92.81% | Growth Percent [13]: 83.45% | Growth Percent [14]: 84.31% | Growth Percent [15]: 85.97% | Growth Percent [16]: 81.36% | Growth Percent [17]: 88.87% | Growth Percent [18]: 79.76% | Growth Percent [19]: 83.12% | Growth Percent [20]: 101.03% | Growth Percent [21]: 89.34% | Growth Percent [22]: 73.62% | Growth Percent [23]: 85.90% | Growth Percent [24]: 92.88% | Growth Percent [25]: 104.20% | Growth Percent [26]: 79.90% | Growth Percent [27]: 99.26% | Growth Percent [28]: 92.74% | Growth Percent [29]: 64.12% | Growth Percent [30]: 97.51% | Growth Percent [31]: 92.74% | Growth Percent [32]: 112.11% | Growth Percent [33]: 82.06% | Growth Percent [34]: 102.82% | Growth Percent [35]: 100.73%

Cc1oc2ccc(O)c(CN3CCCCCC3)c2c1C(=O)Nc1ccc(C(F)(F)F)cc1 [Compound 23]
Growth Percent [1]: 48.09% | Growth Percent [2]: 29.63% | Growth Percent [3]: 48.84% | Growth Percent [4]: 50.46% | Growth Percent [5]: 81.06% | Growth Percent [6]: 75.08% | Growth Percent [7]: 66.34% | Growth Percent [8]: 80.45% | Growth Percent [9]: 76.90% | Growth Percent [10]: 64.80% | Growth Percent [11]: 72.52% | Growth Percent [12]: 64.31% | Growth Percent [13]: 45.06% | Growth Percent [14]: 66.72% | Growth Percent [15]: 67.44% | Growth Percent [16]: 50.40% | Growth Percent [17]: 39.15% | Growth Percent [18]: 70.39% | Growth Percent [19]: −8.44% | Growth Percent [20]: 62.02% | Growth Percent [21]: 53.65% | Growth Percent [22]: 5.74% | Growth Percent [23]: 58.14% | Growth Percent [24]: 78.51% | Growth Percent [25]: 48.73% | Growth Percent [26]: 45.70% | Growth Percent [27]: 78.38% | Growth Percent [28]: 73.98% | Growth Percent [29]: 50.48% | Growth Percent [30]: 69.34% | Growth Percent [31]: 83.01% | Growth Percent [32]: 82.00% | Growth Percent [33]: 58.58% | Growth Percent [34]: 67.27% | Growth Percent [35]: 75.44%
